In patent publication US20180008665A1, “METHODS OF TREATING AND PREVENTING GOUT AND LEAD NEPHROPATHY” (priority 2016, published 2018):

How the values were obtained:
[1] = Procedure: (§1) Each tablet contains 450 mg of pharmaceutical grade of GSH powder.
(§2) Seven (7) subjects with gout and hyperuricemia were examined. Specifically, these seven subjects were part of an open-label, twelve (12) weeks study in which they received 2700 mg daily (450 mg/tablet, 2 tablets/time, 3 times/day) of (2S)-2-Amino-4-{[(1R)-1-[(carboxymethyl)carbamoyl]-2-sulfanylethyl]carbamoyl}butanoic acid (hereinafter “CT° 1”).

[2] = remark: listed apart in the source
Procedure: as §1, §2
All of the subjects were classified as renally impaired (glomerular filtration rate <80 ml/minute). A serum creatinine test measures the level of creatinine in the blood and provides an estimate of glomerular filtration rate that indicates the excretory function of the kidney. If the kidney functions improperly, an increased level of creatinine may accumulate in the blood.

[3] = initiation during an acute gout attack, 57 men with crystal-proven gout; cited from earlier work
[4] = in vivo; cited from earlier work
[5] = after 12 weeks of treatment versus first visit, 2700 mg daily oral

SMILES: N[C@@H](CCC(=O)N[C@@H](CS)C(=O)NCC(=O)O)C(=O)O [CT°I, (2S)-2-Amino-4-{[(1R)-1-[(carboxymethyl)carbamoyl]-2-sulfanylethyl]carbamoyl}butanoic acid]
- mean blood lead level after 12 weeks of treatment ([1]; 7 subjects, 2700 mg daily oral, 12 weeks, first visit 49.90±8.41 μg/dL): 37.26 ± 6.29 µg/dL
- mean serum urate after 12 weeks of treatment ([1]; 7 subjects, 2700 mg daily oral, 12 weeks, first visit 521.07±40.11 mg/L): 346.46 ± 21.17 mg/L
- reduction of blood lead level [1, 5]: 25.33%
- reduction of serum urate [1, 5]: 33.51%
- significance of the reduction of blood lead level ([1]; p<0.05, 2700 mg daily oral): significantly different after 12 weeks of treatment
- significance of the reduction of serum urate ([1]; p<0.05, 2700 mg daily oral): significantly different after 8 weeks of treatment
- mean serum creatinine after 12 weeks of treatment ([2]; 7 subjects, 2700 mg daily oral, 12 weeks, first visit 135.29±6.89 μmol/L): 99.00 ± 4.45 µmol/L
- reduction of serum creatinine [2, 5]: 26.82%
- significance of the reduction of serum creatinine ([2]; p<0.05, 2700 mg daily oral): significantly different after 8 weeks of treatment

SMILES: Oc1ncnc2[nH]ncc12 [allopurinol]
- effect on daily pain, recurrent flares, or inflammatory markers [3]: no significant difference

SMILES: COc1cc2c(c(OC)c1OC)-c1ccc(OC)c(=O)cc1[C@@H](NC(C)=O)CC2 [colchicine]
- part of the dose excreted unchanged by the kidney [4]: 10-20%
- removal by hemodialysis [4]: not removable by hemodialysis
